How the values were obtained:
rice = assay: Test B flood test rice; type: in vivo, Oryza sativa
Method: (§1) At the same time, these crop and weed species were also treated with postemergence applications of test chemicals formulated in the same manner. Plants ranged in height from 2 to 18 cm (1- to 4-leaf stage) for postemergence treatments. Plant species in the flood test consisted of rice (Oryza sativa), smallflower flatsedge (Cyperus difformis), duck salad (Heteranthera limosa) and bamyardgrass (Echinochloa crus-galli) grown to the 2-leaf stage for testing. Treated plants and controls were maintained in a greenhouse for twelve to sixteen days, after which all species were compared to controls and visually evaluated. Plant response ratings, summarized in Table B, are based on a scale of 0 to 10 where 0 is no effect and 10 is complete control. A dash (−) response means no test result.

smallflower flatsedge = assay: Test B flood test smallflower flatsedge; type: in vivo, Cyperus difformis
Method: as §1

duck salad = assay: Test B flood test duck salad; type: in vivo, Heteranthera limosa
Method: as §1

bamyardgrass = assay: Test B flood test barnyardgrass; type: in vivo, Echinochloa crus-galli
Method: as §1

bedstraw = assay: Test B pre/postemergence bedstraw; type: in vivo, Galium aparine
In short: (§2)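 Herbicidal effect was estimated by eye on a ten-point control scale after plants spent twelve to sixteen days in a greenhouse following soil or foliar treatment. Foliar sprays targeted plants at one to four leaves; all doses were formulated in a non-phytotoxic solvent with surfactant.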

blackgrass = assay: Test B pre/postemergence blackgrass; type: in vivo, Alopecurus myosuroides
In short: as §2

surinam grass = assay: Test B pre/postemergence surinam grass; type: in vivo, Brachiaria decumbens
In short: as §2

cocklebur = assay: Test B pre/postemergence cocklebur; type: in vivo, Xanthium strumarium
In short: as §2

corn = assay: Test B pre/postemergence corn; type: in vivo, Zea mays
In short: as §2

crabgrass = assay: Test B pre/postemergence crabgrass; type: in vivo, Digitaria sanguinalis
In short: as §2

giant foxtail = assay: Test B pre/postemergence giant foxtail; type: in vivo, Setaria faberii
In short: as §2

morningglory = assay: Test B pre/postemergence morningglory; type: in vivo, Ipomoea hederacea
In short: as §2

pigweed = assay: Test B pre/postemergence pigweed; type: in vivo, Amaranthus retroflexus
In short: as §2

rape = assay: Test B pre/postemergence rape; type: in vivo, Brassica napus
In short: as §2

soybean = assay: Test B pre/postemergence soybean; type: in vivo, Glycine max
In short: as §2

sugar beet = assay: Test B pre/postemergence sugar beet; type: in vivo, Beta vulgaris
In short: as §2

velvetleaf = assay: Test B pre/postemergence velvetleaf; type: in vivo, Abutilon theophrasti
In short: as §2

wheat = assay: Test B pre/postemergence wheat; type: in vivo, Triticum aestivum
In short: as §2

wild oat = assay: Test B pre/postemergence wild oat; type: in vivo, Avena fatua
In short: as §2

purple nutsedge = assay: Test B pre/postemergence purple nutsedge; type: in vivo, Cyperus rotundus
In short: as §2

[1] = Rate 62 g/ha, flood test species, Pre-emergence, visual evaluation after twelve to sixteen days
[2] = Rate 125 g/ha, Pre-emergence section (flood test species), scale 0 to 10, 0 no effect, 10 complete control
[3] = Rate 250 g/ha, Pre-emergence (flood test species), scale 0 to 10, 0 is no effect, 10 is complete control
[4] = Rate 500 g/ha, Pre-emergence section of Table B, 0 to 10 scale (0 no effect, 10 complete control)
[5] = Postemergence, Rate 62 g/ha, scale 0 to 10, 0 is no effect, 10 is complete control
[6] = Postemergence, Rate 125 g/ha, scale of 0 to 10 where 0 is no effect and 10 is complete control
[7] = Postemergence, Rate 500 g/ha, scale 0 (no effect) to 10 (complete control)
[8] = Preemergence, Rate 250 g/ha, scale 0 (no effect) to 10 (complete control)
[9] = Rate 62 g/ha, Preemergence, scale 0 to 10
[10] = Rate 125 g/ha, Preemergence, scale 0 to 10 (0 no effect, 10 complete control)
[11] = Rate 250 g/ha, Postemergence, scale 0 to 10, 0 is no effect, 10 is complete control
[12] = Rate 500 g/ha, Preemergence, scale 0 to 10 (0 no effect, 10 complete control)

## CC(C)N(C(=O)n1oc(=O)n(C(C)C(=O)N2CCOCC2)c1=O)c1ccc(F)cc1 (stereo not shown) [Compound 705]
rice; [1]
  Plant response rating, Rice (0 to 10 scale, 0 is no effect, 10 is complete control): 0
rice; [2]
  Rice plant response rating: 1
rice; [3]
  Rice plant response rating: 2
rice; [4]
  Rice plant response rating: 2
Smallflower flatsedge; [1]
  Plant response rating, S. Flatsedge (0 to 10 scale, 0 is no effect, 10 is complete control): 0
Smallflower flatsedge; [2]
  S. Flatsedge plant response rating: 0
Smallflower flatsedge; [3]
  S. Flatsedge plant response rating: 0
Smallflower flatsedge; [4]
  S. Flatsedge plant response rating: 0
Duck salad; [1]
  Plant response rating, Ducksalad (0 to 10 scale, 0 is no effect, 10 is complete control): 0
Duck salad; [2]
  Ducksalad plant response rating: 0
Duck salad; [3]
  Ducksalad plant response rating: 0
Duck salad; [4]
  Ducksalad plant response rating: 0
bamyardgrass; [1]
  Plant response rating, Barnyardgrass (0 to 10 scale, 0 is no effect, 10 is complete control): 0
bamyardgrass; [2]
  Barnyardgrass plant response rating: 0
bamyardgrass; [3]
  Barnyardgrass plant response rating: 2
bamyardgrass; [4]
  Barnyardgrass plant response rating: 2

## CCOC(CC)n1c(=O)on(C(=O)N(c2ccc(F)cc2F)C(C)C)c1=O (stereo not shown) [Compound 774]
bedstraw; [5]
  Plant response rating, Bedstraw: 0
bedstraw; [6]
  Bedstraw plant response rating: 0
bedstraw; [7]
  Bedstraw plant response rating: 0
bedstraw; [8]
  Bedstraw plant response rating: 0
bedstraw; [9]
  Bedstraw plant response rating: 0
bedstraw; [10]
  Bedstraw plant response rating: 0
bedstraw; [11]
  Bedstraw plant response rating: 0
bedstraw; [12]
  Bedstraw plant response rating: 0
blackgrass; [5]
  Plant response rating, Blackgrass: 0
blackgrass; [6]
  Blackgrass plant response rating: 0
blackgrass; [7]
  Blackgrass plant response rating: 0
blackgrass; [8]
  Blackgrass plant response rating: 0
blackgrass; [9]
  Blackgrass plant response rating: 0
blackgrass; [10]
  Blackgrass plant response rating: 0
blackgrass; [11]
  Blackgrass plant response rating: 0
blackgrass; [12]
  Blackgrass plant response rating: 0
Surinam grass; [5]
  Plant response rating, B. signalgrass: 0
Surinam grass; [6]
  B. signalgrass plant response rating: 0
Surinam grass; [8]
  B. signalgrass plant response rating: 0
Surinam grass; Rate 62 g/ha, Preemergence, scale 0 (no effect) to 10 (complete control)
  B. signalgrass plant response rating: 0
Surinam grass; [10]
  B. signalgrass plant response rating: 0
Surinam grass; [11]
  B. signalgrass plant response rating: 0
Surinam grass; Rate 500 g/ha, Postemergence, scale 0 to 10, 0 is no effect, 10 is complete control
  B. signalgrass plant response rating: 0
Surinam grass; [12]
  B. signalgrass plant response rating: 0
cocklebur; [5]
  Plant response rating, Cocklebur: 0
cocklebur; [6]
  Cocklebur plant response rating: 0
cocklebur; [7]
  Cocklebur plant response rating: 0
cocklebur; [8]
  Cocklebur plant response rating: 0
cocklebur; [9]
  Cocklebur plant response rating: 0
cocklebur; [10]
  Cocklebur plant response rating: 0
cocklebur; [11]
  Cocklebur plant response rating: 0
cocklebur; [12]
  Cocklebur plant response rating: 0
corn; [5]
  Plant response rating, Corn: 0
corn; [6]
  Corn plant response rating: 0
corn; [7]
  Corn plant response rating: 0
corn; [8]
  Corn plant response rating: 0
corn; [9]
  Corn plant response rating: 0
corn; [10]
  Corn plant response rating: 0
corn; [11]
  Corn plant response rating: 0
corn; [12]
  Corn plant response rating: 0
crabgrass; [5]
  Plant response rating, Crabgrass: 0
crabgrass; [6]
  Crabgrass plant response rating: 0
crabgrass; [7]
  Crabgrass plant response rating: 0
crabgrass; [8]
  Crabgrass plant response rating: 0
crabgrass; [9]
  Crabgrass plant response rating: 0
crabgrass; [10]
  Crabgrass plant response rating: 0
crabgrass; [11]
  Crabgrass plant response rating: 0
crabgrass; [12]
  Crabgrass plant response rating: 0
Giant foxtail; [5]
  Plant response rating, Giant foxtail: 0
Giant foxtail; [6]
  Giant foxtail plant response rating: 0
Giant foxtail; [7]
  Giant foxtail plant response rating: 0
Giant foxtail; [8]
  Giant foxtail plant response rating: 0
Giant foxtail; [9]
  Giant foxtail plant response rating: 0
Giant foxtail; [10]
  Giant foxtail plant response rating: 0
Giant foxtail; [11]
  Giant foxtail plant response rating: 0
Giant foxtail; [12]
  Giant foxtail plant response rating: 0
morningglory; [5]
  Plant response rating, Morningglory: 0
morningglory; [6]
  Morningglory plant response rating: 0
morningglory; [7]
  Morningglory plant response rating: 0
morningglory; [9]
  Morningglory plant response rating: 0
morningglory; [10]
  Morningglory plant response rating: 0
morningglory; [11]
  Morningglory plant response rating: 0
morningglory; [12]
  Morningglory plant response rating: 0
pigweed; [5]
  Plant response rating, Redroot pigweed: 0
pigweed; [6]
  Redroot pigweed plant response rating: 0
pigweed; [7]
  Redroot pigweed plant response rating: 0
pigweed; [9]
  Redroot pigweed plant response rating: 0
pigweed; [10]
  Redroot pigweed plant response rating: 0
pigweed; [11]
  Redroot pigweed plant response rating: 0
pigweed; [12]
  Redroot pigweed plant response rating: 0
rape; [5]
  Plant response rating, Rape: 0
rape; [6]
  Rape plant response rating: 0
rape; [7]
  Rape plant response rating: 0
rape; [9]
  Rape plant response rating: 0
rape; [10]
  Rape plant response rating: 0
rape; [11]
  Rape plant response rating: 0
rape; [12]
  Rape plant response rating: 0
soybean; [5]
  Plant response rating, Soybean: 0
soybean; [7]
  Soybean plant response rating: 0
soybean; [9]
  Soybean plant response rating: 0
soybean; [10]
  Soybean plant response rating: 0
soybean; [11]
  Soybean plant response rating: 0
soybean; [12]
  Soybean plant response rating: 0
Sugar beet; [5]
  Plant response rating, Sugarbeets: 0
Sugar beet; [7]
  Sugarbeets plant response rating: 0
Sugar beet; [9]
  Sugarbeets plant response rating: 0
Sugar beet; [10]
  Sugarbeets plant response rating: 0
Sugar beet; [11]
  Sugarbeets plant response rating: 0
Sugar beet; [12]
  Sugarbeets plant response rating: 0
velvetleaf; [5]
  Plant response rating, Velvetleaf: 0
velvetleaf; [7]
  Velvetleaf plant response rating: 0
velvetleaf; [9]
  Velvetleaf plant response rating: 0
velvetleaf; [10]
  Velvetleaf plant response rating: 0
velvetleaf; [11]
  Velvetleaf plant response rating: 0
velvetleaf; [12]
  Velvetleaf plant response rating: 0
wheat; [5]
  Plant response rating, Wheat: 0
wheat; [7]
  Wheat plant response rating: 0
wheat; [9]
  Wheat plant response rating: 0
wheat; [10]
  Wheat plant response rating: 0
wheat; [11]
  Wheat plant response rating: 0
wheat; [12]
  Wheat plant response rating: 0
Wild oat; [5]
  Plant response rating, Wild oats: 0
Wild oat; [7]
  Wild oats plant response rating: 0
Wild oat; [9]
  Wild oats plant response rating: 0
Wild oat; [10]
  Wild oats plant response rating: 0
Wild oat; [11]
  Wild oats plant response rating: 0
Wild oat; [12]
  Wild oats plant response rating: 0
Purple nutsedge; [5]
  Plant response rating, Nutsedge: 0
Purple nutsedge; [6]
  Nutsedge plant response rating: 0
Purple nutsedge; [7]
  Nutsedge plant response rating: 0
Purple nutsedge; [9]
  Nutsedge plant response rating: 0
Purple nutsedge; [10]
  Nutsedge plant response rating: 0
Purple nutsedge; [11]
  Nutsedge plant response rating: 0
Purple nutsedge; [12]
  Nutsedge plant response rating: 0
